Reference: BindingDB's records for doi:10.1016/j.bmcl.2018.08.039 (National Institutes of Health, 2018)

Biological target: Bromodomain-containing protein 4 (Homo sapiens, UniProt O60885)
Experiment: Displacement of biotinylated acetylated peptide from recombinant human partial length BRD4 long isoform bromodomain 1/2 (N44 to E460 residues) expressed in Escherichia coli BL21 measured after 1 hr by Bromoscan method

Row | Compound | Kd [nM]
1 | Cc1noc(C)c1-c1ccc2nc(Cl)nc(NCc3cccc(Cl)c3)c2c1 | 980
2 | CNc1nc(NCc2cccc(Cl)c2)c2cc(-c3c(C)noc3C)ccc2n1 | 2900
3 | Cc1noc(C)c1-c1ccc2nc(-n3cc(CCO)cn3)nc(NCc3cccc(Cl)c3)c2c1 | 140
4 | Cc1noc(C)c1-c1ccc2nc(-c3ccc(CO)nc3)nc(NCc3cccc(Cl)c3)c2c1 | 250
